Data as given in US12459914B2, “Compounds and compositions for the treatment of tumors” (FONDAZIONE ISTITUTO ITALIANO DI TECNOLOGIA, priority 2019, dated 2025).
pEC50, pIC50: −log10 of the molar value.

How the values were obtained:
[1] = system: Homologous recombination (HR) in BxPC3 cells; assay: Homologous recombination assay (HR); assay type: cell-based; settings: Homo sapiens, BXPC-3, read-out: HR inhibition: IC50
Experimental: Homologous recombination (HR) was assessed by using a commercially available assay (Norgen). This assay is based on cell co-transfection with two plasmids that, upon cells entering, recombinate. The efficiency of HR can be assessed by real time PCR, using primer mixtures included in the assay kit. Different primer mixtures allow differentiation between the original plasmid backbones and their recombination product.
BxPC3 cells (2×10^3 per well) were seeded in a 24-well plate and allowed to adhere overnight. Co-transfection with the two plasmids was performed in Lipofectamine 2000 (Invitrogen) for 5 h, according to the manufacturer's instructions. During transfection cells were exposed at different doses of BRCA2-Rad51 disruptors, dissolved in RPMI without serum in the presence of 0.6% DMSO.
After washing with PBS, cells were harvested, and DNA was isolated using QIAamp® DNA Mini Kit (Qiagen). Sample concentration was measured using an ONDA Nano Genius photometer.
The thermal cycler (CFX96 ™ Real Time System, BioRad) was programmed as follows: initial denaturation 95° C. for 3 min then 95° C. for 15 sec., 61° C. for 30 sec., 72° C. for 1 min and repeated for 40 cycles. Melt curve analysis was done. Samples were run in triplicate, in 10 μl reaction volume containing 25 ng of template.
In each DNA sample from control and treated cultures, the ΔCt between the recombination product and the backbone plasmids was calculated. HR efficiency was evaluated from the 2^−ΔΔ^Ct value obtained by comparing treated vs control samples.

[2] = molecular target: T1, BRC4/RAD51 interaction (Homo sapiens, UniProt Q06609); assay: Competitive ELISA assay, disruption of BRC4/RAD51 interaction; assay type: binding; settings: human Rad51, biotinylated BRC4 peptide
T1 construct: purchased Creative Biomart (Rad51); Life Technologies (BRC4 peptide)
T1 sequence (Q06609 1-339): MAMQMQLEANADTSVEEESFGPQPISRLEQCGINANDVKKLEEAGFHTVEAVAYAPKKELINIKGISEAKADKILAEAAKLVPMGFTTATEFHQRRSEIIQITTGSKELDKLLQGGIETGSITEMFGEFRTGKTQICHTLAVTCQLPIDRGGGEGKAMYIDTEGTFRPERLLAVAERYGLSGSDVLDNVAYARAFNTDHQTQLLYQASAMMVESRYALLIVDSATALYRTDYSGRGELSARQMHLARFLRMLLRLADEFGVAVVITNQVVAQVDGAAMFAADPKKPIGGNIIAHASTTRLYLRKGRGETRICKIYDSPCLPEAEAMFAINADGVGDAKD
How it was run: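 Competitive ELISA: plates coated with biotinylated BRC4 peptide, blocked with 1% BSA/PBST, then hybridized overnight with human Rad51 protein. Compounds tested in triplicate dose-response, […], 1% DMSO. Bound Rad51 detected colorimetrically with anti-Rad51 antibody, HRP secondary and TMB quenched with HCl.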

pIC50 [1]: 4.74
pEC50 [2]: 4.72
Structure (SMILES): CCC(=O)N1N=C(c2c(-c3ccccc3)c3cc(Cl)ccc3[nH]c2=O)CC1c1ccc(OC)cc1 (centres unmarked) [d.12, 6-chloro-3-[3-(4-methoxyphenyl)-2-propanoyl-3,4-dihydropyrazol-5-yl]-4-phenyl-1H-quinolin-2-one]
